This note sets out measurements from US7662842B2, “Thiazolidinone amides, thiazolidine carboxylic acid amides, and serine amides, including polyamine conjugates thereof, as selective anti-cancer agents” (Ohio State Univesity Research Foundation, priority 2003, dated 2010).

Structures are written as SMILES. Where a name gives a salt, the structure may show the parent alone. Read-outs that look alike come from different tables or passages of the source.

One data set concerns SKMEL-188 melanoma cells. The experiment in a line: Sulforhodamine B assay in melanoma cells, SKMEL-188. The format is cell-based. The note with it: SRB assay, 48 h incubation, melanoma cell line. The method, then: (§1) SKMEL-188 cells were cultured in Ham's F10 medium (Gibco Invitrogen, Inc., Grand Island, N.Y.) plus 5% fetal bovine serum (Cellgro Mediatech, Inc., Herndon, Va.) and 1% antibiotic/antimycotic mixture (Sigma-Aldrich, Inc., St. Louis, Mo.). WM-164 cells (gift of Dr. Meenhard Herlyn, Wistar Inst., Philadelphia, Pa.) and human dermal fibroblasts (Cascade Biologics, Inc., Portland, Oreg.) were cultured in DMEM medium (Cellgro Mediatech, Inc.) supplemented with 5% fetal bovine serum, 1% antibiotic.antimycotic mixture and bovine insulin ([…], Sigma-Aldrich, Inc.). Human dermal fibroblasts were used as a control to examine the effects of compounds on stromal environment. Thus, the effect of the various compounds on melanoma cells versus fibroblasts would document their potential selectivity.
(§2) Sulforhodamine B Assay: Cells were seeded into 96-well plates at 5000 cells/well. After 12 hours, media were changed and serial dilutions of compounds were added. Cells were incubated with each compound for 48 hours. Fresh media containing the test compound were changed ever 24 hours. Thereafter, total cell protein corresponding to cell numbers (both viable and non-viable cells) were measured using the sulforhodamine B (SRB) assay according to manufacturer's protocol (Sigma-Aldrich, Inc.) (Rubinstein et al., “Comparison of in vitro Anticancer Drug-screening Data Generated with a Tetrazolium Assay Versus a Protein Assay Against a Diverse Panel of Human Tumor Cell Lines,” J. Natl. Cancer Inst. 82:1113-1118 (1990); Dothager et al., “Synthesis and Identification of Small Molecules that Potently Induce Apoptosis in Melanoma Cells Through GI Cell Cycle Arrest,” J. Am. Chem. Soc. 127:8686-8696 (2005), each of which is hereby incorporated by reference in its entirety). Briefly, cells were fixed with trichloracetic acid, washed and incubated with sulforhodamine B for 30 minutes. After another wash, dye incorporated into the cells was solubilized and measured using a plate reader at 565 nm.
(§3) Statistical Analysis: Data is presented as mean±SEM (n=6-8). […] Statistical analyses were performed with Student's t-test (*p<0.05; **p<0.005).
(§4) DTIC and Taxol were assayed in the same way for comparison and served as internal quality controls in the different batches of assay. For comparison, the activities of 5R and 5S were measured.

The next data set has as its system WM-164 cells. The data set can be described thus: Sulforhodamine B assay in melanoma cells, WM-164. The class given is cell-based. The note with it: SRB assay, 48 h incubation, melanoma cell line. On the procedure:
as §1, §2, §3, §4

The test system of a further data set is human dermal fibroblasts. The experiment in a line: Sulforhodamine B assay, fibroblast control cells. The class given is cell-based. The note with it: SRB assay, 48 h incubation. The method, then: as §1, §2, §3, §4
In data set [1] the test system is human breast cancer cell line (MCF-7). The data set can be described thus: SRB cytotoxicity assay, MCF-7. The format is cell-based. The method, then:
(§5) For in vitro cytotoxicity screening, 1000 to 5000 cells were plated into each well of 96-well plates depending on growth rate, and exposed to different concentrations of a test compound for 96 h in three to five replicates. All the compounds were dissolved in dimethyl sulfoxide at 5 to 20 mM, and diluted to desired concentrations in complete culture medium. Cell numbers at the end of the drug treatment were measured by the SRB assay (Gududuru et al., “Synthesis and Biological Evaluation of Novel Cytotoxic Phospholipids for Prostate Cancer,” Bioorg. Med. Chem. Lett. 14:4919-4923 (2004); Rubinstein et al., “Comparison of in vitro Anticancer-Drug-Screening Data Generated with a Tetrazolium Assay Versus a Protein Assay Against a Diverse Panel of Human Tumor Cell Lines,” J. Natl. Cancer Inst. 82:1113-1118 (1990), each of which is hereby incorporated by reference in its entirety). Briefly, the cells were fixed with 10% of trichloroacetic acid, stained with 0.4% SRB, and the absorbances at 540 nm was measured using a plate reader (DYNEX Technologies, Chantilly, Va.). […] A sandwich ELISA (Roche, Mannheim, Germany) utilizing monoclonal antibodies specific for DNA and histones was used to quantify degree of apoptosis induced by the analogs after 72 h exposure. This assay measures DNA-histone complexes (mono- and oligonucleosomes) released into cytoplasm from the nucleus during apoptosis.
In vitro cytotoxicity assay was performed by the same sulforhodamine B (SRB) assay (described above). The compounds shown in Table 8 below where tested for activity against the breast cancer and ovarian cancer cell lines.
RH7777 and CV-1 cells were used as negative controls and MCF-7 cell line (breast cancer) was included to examine the selectivity.

Data set [2] concerns PPC-1 human prostate cancer cells. The experiment in a line: SRB cytotoxicity assay, PPC-1. The class given is cell-based. The following applies: prostate cancer cell line. The method, then:
(§6) Dr. Mitchell Steiner at University of Tennessee Health Science Center, kindly provided PPC-1 and TSU-Pr1 cells.
as §5

Data set [3] relates to PC-3 human prostate cancer cells. The data set can be described thus: SRB cytotoxicity assay, PC-3. The format is cell-based. The note with it: 96 h exposure, prostate cancer cell line. The method, then:
as §5

For data set [4], the system named is RH7777 rat hepatoma cells. The data set can be described thus: SRB cytotoxicity assay, RH7777 control cell line. The class given is cell-based. The following applies: SRB assay, 96 h exposure, control cell line. The method, then:
as §5

Data set [5] has as its system DU-145 human prostate cancer cells. The data set can be described thus: SRB cytotoxicity assay, DU-145. The format is cell-based. The method, then: as §5
Data set [6] relates to LNCaP human prostate cancer cells. The data set can be described thus: SRB cytotoxicity assay, LNCaP. The class given is cell-based. The note with it: 96 h exposure, prostate cancer cell line. On the procedure:
as §5

Data set [7] has as its system TSU-Pr1 human prostate cancer cells. The data set can be described thus: SRB cytotoxicity assay, TSU-Pr1. The format is cell-based. The following applies: prostate cancer cell line. The method, then:
as §6, §5

The next data set has as its system CV-1 cells. The data set can be described thus: SRB cytotoxicity assay, CV-1 control cell line. The class given is cell-based. On the procedure: For in vitro cytotoxicity screening, 1000 to 5000 cells were plated into each well of 96-well plates depending on growth rate, and exposed to different concentrations of a test compound for 96 h in three to five replicates. All the compounds were dissolved in dimethyl sulfoxide at 5 to 20 mM, and diluted to desired concentrations in complete culture medium. Cell numbers at the end of the drug treatment were measured by the SRB assay (Gududuru et al., “Synthesis and Biological Evaluation of Novel Cytotoxic Phospholipids for Prostate Cancer,” Bioorg. Med. Chem. Lett. 14:4919-4923 (2004); Rubinstein et al., “Comparison of in vitro Anticancer-Drug-Screening Data Generated with a Tetrazolium Assay Versus a Protein Assay Against a Diverse Panel of Human Tumor Cell Lines,” J. Natl. Cancer Inst. 82:1113-1118 (1990), each of which is hereby incorporated by reference in its entirety). Briefly, the cells were fixed with 10% of trichloroacetic acid, stained with 0.4% SRB, and the absorbances at 540 nm was measured using a plate reader (DYNEX Technologies, Chantilly, Va.). […] A sandwich ELISA (Roche, Mannheim, Germany) utilizing monoclonal antibodies specific for DNA and histones was used to quantify degree of apoptosis induced by the analogs after 72 h exposure. This assay measures DNA-histone complexes (mono- and oligonucleosomes) released into cytoplasm from the nucleus during apoptosis. RH7777 cells were employed because of nonspecific cytotoxicity of compound 4 in receptor-negative cells as well as receptor-positive prostate cancer cells.
RH7777 and CV-1 cells were used as negative controls and MCF-7 cell line (breast cancer) was included to examine the selectivity. 5-Fluorouracil was used as reference drug.

[8] abbreviates: Homo sapiens, WM164, read-out: IC50 WM-164.
Setting [9] is: Homo sapiens, PPC-1, 96 h exposure.

With `CCCCCCCCCCCCCCOCCCNCCCNC(=O)[C@@H](CO)NC(=O)OC(C)(C)C`, the IC50 is 3.8 µM in the data set with SKMEL-188 melanoma cells (SK-MEL-188, 48 h); 3.3 µM in the data set on WM-164 cells (setting [8]); 3.4 µM with human dermal fibroblasts (Homo sapiens, Fibroblast, 48 h).
The molecule `CCCCCCCCCCCCCCCCCCNC(=O)C1CSC(c2ccoc2)N1` (centres unmarked) (as salt: hydrochloride) [Compound 12, 2-(furan-3-yl)-N-octadecylthiazolidine-4-carboxamide] displayed a melting point of 99 °C.
Same read-out and setting: for `CCCCCCCCCCCCCCCCCCNC(=O)[C@@H]1CSC(CCCCCCCCCCCC)N1` (mixture of isomers) [Compound 7, (2RS, 4R)-2-Dodecylthiazolidine-4-carboxylic acid octadecylamide] the value was 86 °C.
Take `CCCCCCCCCCCCCCCCCCNC(=O)[C@@H]1CSC(C2CCCCC2)N1` (mixture of isomers) [Compound 8, (2RS, 4R)-2-Cyclohexylthiazolidine-4-carboxylic acid octadecylamide]: the IC50 in the data set with WM-164 cells (setting [8]) is greater than 50 µM.
As to `CCCCCCCCCCCCCCCCCCNC(=O)[C@@H]1CSC(c2c[nH]c3ccccc23)N1` (mixture of isomers) [Compound 10, (2RS, 4R)-2-(1H-Indol-3yl)-thiazolidine-4-carboxylic acid octadecylamide], half-maximal inhibition in data set [1] (Homo sapiens, MCF7, SRB assay) (IC50) was put at 10.6 µM.
`CCCCCCCCCCCCCCCCCCNC(=O)[C@@H]1CSC(c2ccc(OC)cc2)N1.Cl` (mixture of isomers) [Compound 15, (2RS, 4R)-2-(4-Methoxy-phenyl)-thiazolidine-4-carboxylic acid octadecylamide Hydrochloride] yielded a melting point of 95 °C. This molecule also registered an IC50 in the data set with SKMEL-188 melanoma cells (SK-MEL-188, 48 h) of 9.7 µM. Moreover, in the data set on WM-164 cells (setting [8]), the IC50 was determined as 13.1 µM. This molecule displayed an IC50 in the data set on human dermal fibroblasts (Homo sapiens, Fibroblast, 48 h) of 28 µM.
The molecule `CCCCCCCCCCCCCCCCCCNC(=O)[C@@H]1CSC(c2cc(OC)c(OC)c(OC)c2)N1.Cl` (mixture of isomers) [Compound 17, (2RS, 4R)-2-(3,4,5-Trimethoxy-phenyl)-thiazolidine-4-carboxylic acid octadecylamide Hydrochloride] registered a melting point of 115 °C. For the same molecule, in [2] (setting [9]), the IC50 was found to be 0.48 µM. In the data set with SKMEL-188 melanoma cells (SK-MEL-188, 48 h), this molecule returned an IC50 of 1.8 µM. For the same molecule, in the data set on WM-164 cells (setting [8]), the concentration for half-maximal inhibition (IC50) was 1.5 µM. In the data set with human dermal fibroblasts (Homo sapiens, Fibroblast, 48 h), the IC50 came out at 5.2 µM.
`CCCCCCCCCCCCCCCCCCNC(=O)[C@@H]1CSC(c2ccc(NC(C)=O)cc2)N1.Cl` (mixture of isomers) [Compound 18, (2RS, 4R)-2-(4-Acetylamino-phenyl)-thiazolidine-4-carboxylic acid octadecylamide Hydrochloride] displayed a melting point of 170 °C. Moreover, half-maximal inhibition with SKMEL-188 melanoma cells (SK-MEL-188, 48 h) (IC50) was put at 2.7 µM. In the data set on WM-164 cells (setting [8]), the IC50 stood at 5.5 µM. Further, in the data set on human dermal fibroblasts (Homo sapiens, Fibroblast, 48 h), the IC50 was greater than 10 µM.
For the molecule `CCCCCCCCCCCCCCCCCCNC(=O)[C@@H]1CSC(c2ccc(F)cc2)N1` (mixture of isomers) [Compound 19, (2RS, 4R)-2-(4-Fluoro-phenyl)-thiazolidine-4-carboxylic acid octadecylamide], in data set [3] (Homo sapiens), the midpoint of inhibition, the IC50, lay at 6.8 µM.
As for `CCCCCCCCCCCCCCCCCCNC(=O)[C@@H]1CSC(c2ccc([N+](=O)[O-])cc2)N1` (mixture of isomers) [Compound 21, (2RS, 4R)-2-(4-Nitro-phenyl)-thiazolidine-4-carboxylic acid octadecylamide], 15.3 µM corresponded to half-maximal inhibition in data set [1] (Homo sapiens, MCF7, SRB assay) (IC50).
Molecule `CCCCCCCCCCCCCCCCCCNC(=O)[C@@H]1CSC(c2ccc(C#N)cc2)N1` (mixture of isomers) [Compound 22, (2RS, 4R)-2-(4-Cyano-phenyl)-thiazolidine-4-carboxylic acid octadecylamide] registered a melting point of 90 °C. In addition, the IC50 in data set [4] (Rattus norvegicus, RH7777) is greater than 20 µM. Moreover, the IC50 in [5] (Homo sapiens, DU-145, read-out: IC50 DU-145, 96 h exposure, prostate cancer cell line) was greater than 20 µM. In data set [6] (Homo sapiens, LNCaP), this molecule displayed an IC50 of 5.9 µM. Further, the IC50 in data set [2] (setting [9]) stood at 5 µM. Besides, the IC50 in [7] (Homo sapiens, TSU-Pr1, 96 h exposure) was greater than 20 µM.
Regarding `CCCCCCCCCCCCCCCCCCNC(=O)[C@@H]1CSC(c2c(Cl)cccc2Cl)N1` (mixture of isomers) [Compound 24, (2RS, 4R)-2-(2,6-Dichloro-phenyl)-thiazolidine-4-carboxylic acid octadecylamide], the melting point came out at 49 °C.
The same measure, in the same setting: to `CCCCCCCCCCCCCCCCCCNC(=O)[C@@H]1CSC(c2ccc(-c3ccccc3)cc2)N1.Cl` (mixture of isomers) [Compound 27, (2RS, 4R)-2-Biphenyl-4-yl-thiazolidine-4-carboxylic acid octadecylamide Hydrochloride] belongs 130 °C.
On to `COc1cc(C2NC(C(=O)NCCCNCCCCNCCCN)CS2)cc(OC)c1OC` (mixture of isomers) [Compound 224], for which the IC50 in data set [4] came out at 71.9 µM; in data set [5] (read-out: IC50 DU-145, 96 h exposure, prostate cancer cell line), 5.1 µM; in [3] it was 5.9 µM; in data set [6], 10.9 µM; in data set [2] (96 h exposure), 5 µM; in data set [7] (96 h exposure), 3 µM. Further, the IC50 in [1] (SRB assay) is greater than 100 µM; in the data set on CV-1 cells it was 30.5 µM.
For the molecule `CCCCCCCCCCCCCCCCCCNC[C@@H](CO)NC` [drawing 31], the IC50 was determined as 3.2 µM in the data set on SKMEL-188 melanoma cells (SK-MEL-188, 48 h); 3.6 µM in the data set on WM-164 cells (setting [8]); 1.6 µM with human dermal fibroblasts (Homo sapiens, Fibroblast, 48 h).
Regarding `CCCCCCCCCCCCCCCCCCNC[C@@H](CO)NC` [drawing 32], the IC50 with SKMEL-188 melanoma cells came to 3.1 µM; with WM-164 cells (read-out: IC50 WM-164), 3.6 µM; in the data set on human dermal fibroblasts it was 2.3 µM.
